We go through ten compounds from PMC4015874, “Effects of Allium victorialis leaf extracts and its single compounds on aldose reductase, advanced glycation end products and TGF-β1 expression in mesangial cells” (BMC Complementary and Alternative Medicine, 2013).

One test deals with AGEs formation. Description: AGEs formation assay (BSA with fructose and glucose, fluorescence). Conditions: BSA with 0.2 M fructose and glucose, 37°C, 7 days. Format: biochemical. The protocol: AGEs formation assay was performed as previously described. Bovine serum albumin (BSA, 10 mg/ml, Sigma-Aldrich) in 50mM phosphate buffer (pH 7.4) with containing 0.02% sodium azide to prevent bacterial growth was added to 0.2 M fructose and glucose. The reaction mixture was then mixed with compounds or aminoguanidine (AG, Sigma-Aldrich). After incubating at 37°C for 7 days, the fluorescent reaction products were assayed on a spectrofluorometric detector (BIO-TEK, Synergy HT, Ex: 350 nm/Em: 450 nm). AGEs assay was performed in quadruplicate.

Test [1] has as its target T1, crude rat lens AR (aldose reductase) (Rattus norvegicus, UniProt P07943).
T1 construct: the supernatant was used as crude rat lens AR; from tissue; host or cells: lens of 8-week-old Sprague-Dawley rats (supernatant of the homogenate)
Description: Rat lens AR activity. The class given is biochemical. The protocol: AR activity was measured as described previously. All animal procedures were approved by the Korea Institute of Oriental Medicine Institutional Animal Care Committee on animal care at our institute and conducted according to institutional guidelines. […] The homogenate was centrifuged at 14,000 rpm for 30 min, and the supernatant was used as crude rat lens AR. […] The reaction was initiated by the addition of NADPH at 37°C and stopped by the addition of 0.15 ml of 0.5 N HCl. Next, 0.5 ml of 6 M NaOH containing 10 mM imidazole was added, and the solution was heated at 60°C for 15 min to convert NADP to a fluorescent product.

The next test concerns the target T2, human RAGE (hRAGE) (Homo sapiens, UniProt Q15109).
T2 construct: expressed in transfected cells; host or cells: mouse kidney mesangial cells (MMCs) overexpressing hRAGE
Description: Live cell-based AGE-BSA/RAGE binding in hRAGE-overexpressing cells. Conditions: hRAGE-overexpressing MMCs, Alexa Fluor 488-labeled AGE-BSA, 6 h. The protocol:
AGE-BSA/RAGE binding in the cells was determined as described previously. Briefly, Alexa 488 labeling of AGE-BSA was performed using the Alexa Fluor® 488 protein labeling kit (Molecular Probes, Eugene, OR). For the binding assay, human RAGE-overexpressing cells (1×10^4) were seeded onto a 96-well assay plate with a clear bottom lid and black plate (Corning, NY) and incubated with serum-free media for 24 h. Before binding, 3% BSA was added for 30 min to block non-specific binding. Cells were treated with 5 μg of Alexa Fluor 488-labeled AGE-BSA in a total volume of 100 μl serum-free medium and incubated in the dark for 6 h in a 5% CO2 humidified atmosphere at 37°C. Compounds were added after the addition of AGE-BSA-Alexa Fluor 488 to hRAGE-overexpressing cells. The non-specific binding of AGE-BSA-Alexa Fluor 488 to cell surface proteins other than hRAGE was compared by incubating cells with untreated cells (blank). After binding, 100 μl Opti-MEM were added to the washed plates, and the plates were then analyzed using a microtiter plate reader (Bio-Tek, Winooski, VT) with excitation and emission wavelengths of 485 and 528 nm, respectively.

Test [2] relates to secreted TGF-β1 in mouse kidney mesangial cells (MMCs). Description: High glucose-induced TGF-β1 secretion in MMCs (ELISA). Conditions: high glucose 48 h, 10 μM compound, ELISA of medium. Format: cell-based. As for the experimental part: Mouse kidney mesangial cells (SV40 MES13, MMC) were obtained from the American Type Culture Collection (#CRL-1927, Rockville, MD) and cultured in Dulbecco's modified Eagle's medium:F-12 (3:1) supplemented with 14 mM HEPES, penicillin 100 U/ml, streptomycin 100 μg/ml, and 5% fetal bovine serum. Cells were routinely grown to confluence in a humidified 37°C, 5% CO2 incubator. The levels of TGF-β1 in the medium were determined as described previously. […] This medium was then harvested and TGF-β1 was activated by treatment with 1 N HCl (0.1 ml/0.5 ml of conditioned media) for 10 min at room temperature, then 0.1 ml 1.2 N NaOH/0.5 M HEPES was added. Quantikine mouse TGF-β1 ELISA (R&D systems, Minneapolis, MN) was performed according to the manufacturer’s protocol, and the TGF-β1 levels were normalized to those of total protein.

For test [3], the system named is TGF-β1 mRNA expression in mouse kidney mesangial cells (MMCs). Description: High glucose-induced TGF-β1 mRNA expression in MMCs (RT-PCR). Format: cell-based. The conditions noted are these: high glucose 48 h, 10 μM compound. As for the experimental part:
Mouse kidney mesangial cells (SV40 MES13, MMC) were obtained from the American Type Culture Collection (#CRL-1927, Rockville, MD) and cultured in Dulbecco's modified Eagle's medium:F-12 (3:1) supplemented with 14 mM HEPES, penicillin 100 U/ml, streptomycin 100 μg/ml, and 5% fetal bovine serum. Cells were routinely grown to confluence in a humidified 37°C, 5% CO2 incubator.
Total cellular RNA was extracted with TRIzol (Invitrogen, Carlsbad, CA), quantified by measuring the absorbance at 260 nm, and stored at -80°C until analysis. The expression of TGF-β1 and GAPDH mRNAs was detected by RT-PCR analysis. The extracted RNA (1 μg) was subjected to a reverse transcriptase reaction with the Maxime RT premix (Intron, Daejeon, Korea) at 42°C for 60 min and 72°C for 10 min. Subsequently, semi-quantitative PCR was performed with Accupower® PCR premix (Intron, Daejeon, Korea). The primer sequences were as follows: mouse TGF-β1 (sense) 5’- TGAACCAAGGAGACGGAATACAGG -3’, (anti-sense) 5'- GCCATGAGGAGCAGGAAGGG -3’ and mouse GAPDH (sense) 5’- ACGGCAAATTCAACGGCACAG -3’, (anti-sense) 5’- AGACTCCACGACATACTCAGCAC -3’. Aliquots of PCR products were electrophoresed on 1.2% agarose gels and visualized after ethidium bromide staining.

Entries after “also recorded” stand apart in the source; their conditions may differ.

T2 sequence (Q15109 23-404): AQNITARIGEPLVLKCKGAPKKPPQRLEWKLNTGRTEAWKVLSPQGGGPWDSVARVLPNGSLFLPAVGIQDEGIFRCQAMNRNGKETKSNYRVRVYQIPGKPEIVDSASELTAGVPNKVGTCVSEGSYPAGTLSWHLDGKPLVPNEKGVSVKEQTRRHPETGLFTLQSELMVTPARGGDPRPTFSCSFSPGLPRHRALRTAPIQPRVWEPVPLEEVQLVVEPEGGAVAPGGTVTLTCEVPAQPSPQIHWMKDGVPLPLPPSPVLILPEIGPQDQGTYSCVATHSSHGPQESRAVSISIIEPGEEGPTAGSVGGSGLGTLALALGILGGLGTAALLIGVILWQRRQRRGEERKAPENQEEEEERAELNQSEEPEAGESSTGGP

One may read the IC50 as the midpoint of a concentration-inhibition curve. On to `N=C(N)NN` [Aminoguanidine, aminoguanidine, reference compound], for which, in the test with AGEs formation, the “AGEs IC50” value is 76.47 ± 4.81 µg/mL and the IC50 is 1030 ± 70 µM.

On to `O=c1c(O[C@@H]2O[C@H](CO)[C@@H](O)[C@H](O)[C@H]2O)c(-c2ccc(O[C@@H]3O[C@H](CO)[C@@H](O)[C@H](O)[C@H]3O)cc2)oc2cc(O[C@@H]3O[C@H](CO)[C@@H](O)[C@H](O)[C@H]3O)cc(O)c12` [Compound 1, Kaempferol 3,7,4’-O-β-D-triglucopyranoside], for which the figures for the IC50 (in the test on AGEs formation; in test [1] (DL-glyceraldehyde substrate)) were > 100 µM and > 50 µM, respectively.

`O=c1c(O[C@@H]2O[C@H](CO)[C@@H](O)[C@H](O)[C@H]2O)c(-c2ccc(O)cc2)oc2cc(O[C@@H]3O[C@H](CO)[C@@H](O)[C@H](O)[C@H]3O)cc(O)c12` [Compound 2, Kaempferol 3,7-O-β-D-diglucopyranoside]: the IC50 in the test with AGEs formation was 56.4 ± 1.39 µM; in test [1] (DL-glyceraldehyde substrate), > 50 µM.

Turning to `O=c1c(O[C@@H]2O[C@H](CO)[C@@H](O)[C@H](O)[C@H]2O)c(-c2ccc(O[C@@H]3O[C@H](CO)[C@@H](O)[C@H](O)[C@H]3O)cc2)oc2cc(O)cc(O)c12` [Compound 3, kaempferol 3,4’-O-β-D-diglucopyranoside], the figures for the IC50 (in the test on AGEs formation; in test [1] (DL-glyceraldehyde substrate)) were 59.7 ± 1.22 µM and 9.77 ± 0.33 µM, respectively.

`C[C@@H]1O[C@@H](Oc2c(-c3ccc(O)c(O)c3)oc3cc(O)cc(O)c3c2=O)[C@H](O)[C@H](O)[C@H]1O` [Compound 4, quercitrin]: the IC50 in the test with AGEs formation is 4.2 ± 0.04 µM; in test [1] (DL-glyceraldehyde substrate), 0.17 ± 0.1 µM. The “Inhibition of AGE-RAGE binding” value on human RAGE (hRAGE) is on record as “significantly inhibited”; on human RAGE (hRAGE) (listed as quercitrin) it was “disrupted AGE-RAGE binding in a concentration-dependent manner”. For the same compound, the “AR inhibitory potency compared with positive control TMG” value in test [1] is “significantly more potent”.

For the compound `O=c1c(O)c(-c2ccc(O)cc2)oc2cc(O)cc(O)c12` [Compound 5, kaempferol], the IC50 in the test on AGEs formation stood at 36 ± 1.4 µM; in test [1] (DL-glyceraldehyde substrate) it was 1.1 ± 0.63 µM. Also, the “AR inhibitory potency compared with positive control TMG” value in test [1] is on record as “significantly more potent”.

On to `O=c1c(O)c(-c2ccc(O)c(O)c2)oc2cc(O)cc(O)c12` [Compound 6, quercetin], for which the IC50 in the test with AGEs formation came out at 27.1 ± 0.11 µM. The “AR inhibitory potency compared with positive control TMG” value in test [1] was “significantly more potent”.

Consider `O=C(O)C=Cc1ccc(O)cc1` [Compound 7, 4-hydroxycinnamic acid], for which the IC50 is 9.92 ± 0.11 µM in the test with AGEs formation and > 50 µM in test [1] (DL-glyceraldehyde substrate).

As for `COc1cc(/C=C/C(=O)O)ccc1O` [Compound 8, ferulic acid], the figures for the IC50 (in the test on AGEs formation; in test [1] (DL-glyceraldehyde substrate)) were 7.5 ± 0.2 µM and > 50 µM, respectively. For the same compound, in test [2], the “Inhibition of high glucose-induced TGF-β1 secretion” value is “significantly reduced; also recorded: reduces”. Moreover, the “Inhibition of high glucose-induced TGF-β1 mRNA expression” value is “greatest inhibitory effect” in test [3] and “significantly reduced; also recorded: reduces” in test [3] (listed as ferulic acid).

With `O=C(O)CC1(CC(=O)O)CCCC1` [Tetramethyleneglutaric acid, 3,3-tetramethyleneglutaric acid, reference compound], in test [1] (DL-glyceraldehyde substrate), the “AR IC50” value stood at 0.94 ± 0.01 µg/mL and the midpoint of inhibition, the IC50, lay at 5.07 ± 0.06 µM.
